Experimental findings from patent US20240199546A1, “INHIBITORS OF SOLUTE CARRIER FAMILY 6A MEMBER 19 (SLC6A19) AND METHODS OF USE THEREOF” (Maze Therapeutics, Inc., priority 2022, published 2024) are described below.

The target in this assay is T1, human SLC6A19 and TMEM27 (Homo sapiens, UniProt Q695T7).
T1 construct: expressed in transfected cells
T1 sequence (Q695T7 1-634): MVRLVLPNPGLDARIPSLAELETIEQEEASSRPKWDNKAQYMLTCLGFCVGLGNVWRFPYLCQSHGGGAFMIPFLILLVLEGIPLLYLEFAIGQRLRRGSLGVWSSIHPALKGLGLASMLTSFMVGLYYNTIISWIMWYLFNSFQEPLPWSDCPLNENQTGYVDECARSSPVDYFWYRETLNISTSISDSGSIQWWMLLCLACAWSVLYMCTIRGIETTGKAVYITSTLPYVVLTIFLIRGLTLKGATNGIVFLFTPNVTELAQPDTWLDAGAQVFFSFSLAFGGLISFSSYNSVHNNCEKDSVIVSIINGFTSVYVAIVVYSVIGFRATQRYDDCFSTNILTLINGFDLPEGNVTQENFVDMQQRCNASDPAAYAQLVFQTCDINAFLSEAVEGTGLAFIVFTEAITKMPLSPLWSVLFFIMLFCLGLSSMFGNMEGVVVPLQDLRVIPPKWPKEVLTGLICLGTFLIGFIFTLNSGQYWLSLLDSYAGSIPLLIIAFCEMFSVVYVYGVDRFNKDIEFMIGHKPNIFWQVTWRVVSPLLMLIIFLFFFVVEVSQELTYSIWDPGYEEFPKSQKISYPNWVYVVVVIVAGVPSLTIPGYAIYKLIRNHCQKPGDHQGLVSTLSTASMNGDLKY
T1 sequence (Q9HBJ8 15-222 partner): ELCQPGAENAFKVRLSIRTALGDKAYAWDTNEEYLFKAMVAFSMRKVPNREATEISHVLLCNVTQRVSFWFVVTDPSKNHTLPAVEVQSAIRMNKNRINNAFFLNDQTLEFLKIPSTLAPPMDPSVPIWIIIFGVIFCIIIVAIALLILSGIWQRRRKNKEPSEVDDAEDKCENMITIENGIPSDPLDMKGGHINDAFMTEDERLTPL
Nature of the assay: Radiolabelled (3H) leucine uptake in CHO cells with doxycycline-inducible expression of human SLC6A19 and TMEM27 (Example B-1). In kind it is cell-based. As to conditions: CHO cells with doxycycline-inducible expression of human SLC6A19 and TMEM27, read-out: SLC6A19_Radioligand Uptake Assay IC50. The procedure:
The flasks were then incubated (humidified, 37° C. with 5% CO2) for 2 minutes. After incubation, 10 mL of pre-warmed cell culture media was added to each flask. The cell suspension was collected and centrifuged for 5 minutes at 200×g. The supernatant was aspirated and the pellet was resuspended in 5 mL pre-warmed cell culture media. The resuspended cells were counted using the Countess Cell Counting Chamber (Invitrogen) and the cell concentration of the suspension was readjusted to 1 million live cells/mL using pre-warmed cell culture media. […] Assay plates were then incubated (humidified, 37° C. with 5% CO2) for 18 hours. After incubation, the media was aspirated and the wells were washed 4 times with pre-warmed HBSS (Sigma-Aldrich, H8264-1L) using an Apricot S-Pipette S2 (Apricot Designs), such that 5 uL/well HBSS was remaining at the end of each wash. […] At this step, the final in-well DMSO concentration in the assay plate is 0.5%. All compounds were plated in a duplicate 8-point dilution series that consisted of 3-fold dilutions. The plates were incubated with compound (humidified, 37° C. with 5% CO2) for 1 hour. […] The plates were then incubated (humidified, 37° C. with 5% CO2) on a plate shaker at 200 rpm for 2 hours. After incubation, the plates were removed from the shaker and kept at room temperature for 15 minutes. Liquid scintillation analysis was performed using the MicroBeta2 Microplate Counter (Perkin Elmer). Activity (%) was derived by normalizing the average of positive control compound treated wells to 0% and the average of DMSO (negative control) wells to 100%. Collaborative Drug Discovery software was used for graphing data.
As for `O=C(NCc1cc2cc(Cl)c(OCc3ccon3)cc2[nH]1)N1CCC1` [Compound 79, N-((5-chloro-6-(isoxazol-3-ylmethoxy)-1H-indol-2-yl)methyl)azetidine-1-carboxamide], the IC50 was found to be 0.272 µM.

`CC1CN(C(=O)NCc2cc3cc(Cl)c(OCc4cscn4)cc3[nH]2)C1` [Compound 80, N-((5-chloro-6-(thiazol-4-ylmethoxy)-1H-indol-2-yl)methyl)-3-methylazetidine-1-carboxamide]: the IC50 is 0.35 µM.

Consider `O=C(NCc1cc2cc(Cl)c(OCc3ccon3)cc2[nH]1)N1CCOCC1` [Compound 84, N-((5-chloro-6-(isoxazol-3-ylmethoxy)-1H-indol-2-yl)methyl)morpholine-4-carboxamide], for which the IC50 was 0.69 µM.

Turning to `O=C(NCc1cc2cc(Cl)c(OCc3ccon3)cc2[nH]1)N1CCCCC1` [Compound 85, N-((5-chloro-6-(isoxazol-3-ylmethoxy)-1H-indol-2-yl)methyl)piperidine-1-carboxamide], the IC50 is 0.402 µM.

Turning to `CC1CCCN1C(=O)NCc1cc2cc(Cl)c(OCc3ccon3)cc2[nH]1` (stereo not drawn) [Compound 86, N-((5-chloro-6-(isoxazol-3-ylmethoxy)-1H-indol-2-yl)methyl)-2-methylpyrrolidine-1-carboxamide], the IC50 stood at 0.49 µM.

Take `CC1CCN(C(=O)NCc2cc3cc(Cl)c(OCc4ccon4)cc3[nH]2)C1` (stereo not drawn) [Compound 87, N-((5-chloro-6-(isoxazol-3-ylmethoxy)-1H-indol-2-yl)methyl)-3-methylpyrrolidine-1-carboxamide]: the IC50 stood at 0.365 µM.

Consider `O=C(NCc1cc2cc(F)c(OCc3ccon3)cc2[nH]1)N1CCCCC1` [Compound 88, N-((5-fluoro-6-(isoxazol-3-ylmethoxy)-1H-indol-2-yl)methyl)piperidine-1-carboxamide], for which the IC50 was determined as 0.477 µM.

`O=C(NCc1cc2cc(F)c(OCc3ccon3)cc2[nH]1)N1CCC1` [Compound 89, N-((5-fluoro-6-(isoxazol-3-ylmethoxy)-1H-indol-2-yl)methyl)azetidine-1-carboxamide]: the IC50 was 0.567 µM.

As to `CC1CCN(C(=O)NCc2cc3cc(F)c(OCc4ccon4)cc3[nH]2)C1` (stereo not drawn) [Compound 91, N-((5-fluoro-6-(isoxazol-3-ylmethoxy)-1H-indol-2-yl)methyl)-3-methylpyrrolidine-1-carboxamide], the IC50 stood at 0.524 µM.

Regarding `O=C(NCc1cc2cc(F)c(OCc3cscn3)cc2[nH]1)N1CCC1` [Compound 92, N-((5-fluoro-6-(thiazol-4-ylmethoxy)-1H-indol-2-yl)methyl)azetidine-1-carboxamide], the IC50 is 0.214 µM.

Take `O=C(NCc1cc2cc(Cl)c(OCc3cscn3)cc2[nH]1)N1CCC(F)C1` (stereo not drawn) [Compound 93, N-((5-chloro-6-(thiazol-4-ylmethoxy)-1H-indol-2-yl)methyl)-3-fluoropyrrolidine-1-carboxamide]: the IC50 was determined as 0.177 µM.

On to `CC1(C(=O)NCc2cc3cc(Cl)c(OCc4cccc(C(F)(F)F)n4)cc3[nH]2)CC1` [Compound 101, N-((5-chloro-6-((6-(trifluoromethyl)pyridin-2-yl)methoxy)-1H-indol-2-yl)methyl)-1-methylcyclopropane-1-carboxamide], for which the IC50 came out at 4.36 µM.

Take `CC(C)c1cc(COc2cc3[nH]c(CNC(=O)C4(C)CC4)cc3cc2Cl)no1` [Compound 102, N-((5-chloro-6-((5-isopropylisoxazol-3-yl)methoxy)-1H-indol-2-yl)methyl)-1-methylcyclopropane-1-carboxamide]: the IC50 turned out to be 17.6 µM.

Consider `CC1(C(=O)NCc2cc3cc(Cl)c(OCCc4ccon4)cc3[nH]2)CC1` [Compound 103, N-((5-chloro-6-(2-(isoxazol-3-yl)ethoxy)-1H-indol-2-yl)methyl)-1-methylcyclopropane-1-carboxamide], for which the IC50 came to 0.114 µM.

For `O=C(NCc1cc2cc(F)c(OCc3cocn3)cc2[nH]1)N1CCCC1` [Compound 115, N-((5-fluoro-6-(oxazol-4-ylmethoxy)-1H-indol-2-yl)methyl)pyrrolidine-1-carboxamide], the IC50 was determined as 0.23 µM.
